Converted amounts (≈) assume the structure as drawn. “And” between values parts separate entries of the source, which are not always exact repeats. Equal entries are not always repeated. Where two headings read alike, the source gives them in different places. Positions of bridges follow the written chain, without caps; N, C: chain ends. Residues, ends and D or L forms follow the SMILES beside them. *: point of attachment. Acm = CC(=O)NC*
Columns and labels:
Assay type in all cases: cell-based, Candida albicans
C. albicans [1] = settings: for MIC: 24 h; for antifungal activity of scrambled peptide analog compared with original peptide: compared with Pγ, Pγ^var and Pγ^opt, respectively, data not shown
Description: Fungal strains used in this study are listed in Supplementary Table S1 and composition of growth media is given in Supplementary Table S2. All P. chrysogenum shaking cultures were inoculated with 2 × 10^8 conidia, in 200 mL defined minimal medium (PcMM) for protein expression or complete medium (CM) before transformation, and grown at 25°C as described ([Sonderegger et al., 2016]). For conidial suspension generation from surface cultures, P. chrysogenum was grown on PcMM agar at 25°C. C. albicans was used as PAF-sensitive model organism and was cultivated on yeast extract peptone dextrose (YPD) agar at 37°C. For growth inhibition and susceptibility assays, C. albicans was grown in 20-fold diluted potato dextrose broth (PDB, Sigma-Aldrich) at 30°C, pH 5.5 ([Huber et al., 2018]).
The MIC of all protein and peptide variants was determined on C. albicans with broth microdilution assays in 96-well microtiter plates (Nunclon Delta, Thermo Fisher Scientific). From a fresh C. albicans overnight culture on YPD agar, cells were harvested with an inoculation loop and suspended in 0.05× PDB (Sigma-Aldrich) ([Arendrup et al., 2016]). The cell number was determined with a counting chamber (Bürker) and the cell number was adjusted to 10^4 mL^-1. In each well, 10^3 cells were incubated with increasing concentrations of antifungal proteins or peptides in a final volume of 200 μL 0.05× PDB. The plates were incubated for 24 h at 30°C before the growth was determined by measuring the optical density (OD620nm) with a multi-mode microplate reader (FLUOstar Omega, BMG Labtech). The MIC was defined as the protein concentration that inhibited growth by ≥90% compared to the untreated control, which was referred as 100% growth.

C. albicans [2] = settings: 2 h
Description: Fungistatic or fungicidal activities were determined by incubating C. albicans (10^4 cells mL^-1) in 0.05× PDB with proteins and peptides at 1× MIC and 2× MIC of at 30°C under continuous shaking (800 rpm) in a Thermomixer Comfort (Eppendorf). At defined time points, aliquots were taken and appropriate dilutions were plated on YPD agar in duplicates to promote growth of viable cells. Agar plates were incubated at 37°C for 24 h to count colony forming units (cfu) ([Huber et al., 2018]).
The determination of the MIC concentration is a well-established, reliable method to elucidate the growth reducing effect of an antifungal compound. […] To gain deeper insight into the antifungal mechanism of the generated protein and peptide variants, we compared them first for their fungicidal potential. In liquid culture C. albicans was exposed to 1× MIC and 2× MIC concentrations of each protein and peptide. After certain time points aliquots were taken and appropriate dilutions were spread on agar plates to allow colony formation of viable cells. The cfu were counted and compared to the untreated control, which was set to be 100%. […] The candidacidal effects were aggravated with higher protein concentrations.

C. albicans [3] = settings: 10 min exposure, mean ± SD, untreated control 1.8 ± 1.2%
Description: (§1) To analyze changes in cell size and to assess kinetics of cell death of C. albicans upon antifungal treatment flow cytometry was applied. For both experiments, 10^4 cells mL^-1 was incubated in 0.05× PDB with the desired AMP concentration for different time points. The incubation was performed in 1.5 mL reaction tubes at 30°C under continuous shaking at 800 rpm in a Thermomixer Comfort (Eppendorf). After incubation, the cells were centrifuged at 4°C with 3,000 ×g for 3 min. For cell size determination, the supernatant was removed and the cells were resuspended and fixed in PBS containing 3.7% (v/v) formaldehyde before changes in cell size were measured by plotting SSC against FSC. C. albicans that were incubated at 95°C for 120 min served as controls. Microscopic control-images were taken with a fluorescence microscope (Axioplan, Zeiss), equipped with a camera (Axiocam 503 mono, Zeiss) and excitation/emission filters (365/420 nm for blue fluorescence and 546/590 or 565/620 nm for red fluorescence, Zeiss). Image acquisition was performed with ZEN 2 microscope software (Zeiss, blue edition) and the cell area was measured with ImageJ 1.52d software ([Schindelin et al., 2012]).
For dead-cell staining, prior to fixation, the cells were incubated in the dark for 30 min at 4°C with 100 μL PBS containing 0.1 μL LIVE/DEAD^TM Fixable Far Red Dead Cell Stain (Thermo Fisher Scientific). The cells were then washed once in PBS and fixed in PBS containing 3.7% formaldehyde. Ethanol-inactivated dead C. albicans served as a positive staining control. The samples were then analyzed by FACS (FACSVerse Flow Cytometer, BD Biosciences), equipped with BD FACSuite software (v1.0.6.5230, BD Biosciences). Dead cells were detected at Excitation/Emission wavelength of 650/665 nm. Stained, live, and dead Candida cells were used as controls to discriminate populations and to set the gates.
To elucidate the AMPs candidacidal activities at an early stage and to compare their time and dose-dependent cell killing in more detail, fluorescence activated cell sorting (FACS) analysis with dead-cell staining was applied. To this end, C. albicans was exposed to 1× and 2× MIC of the respective AMPs for 10 min, stained with the dead-cell marker, and fixed with formaldehyde. With FACS analyses, 1.8 ± 1.2% dead cells were detected in the untreated control (Figure 3).

C. albicans biofilms = test: Anti-biofilm activity, FDA fluorescence; settings: AMP 0–40 μM for 24 h at 30°C; for concentration inhibiting cell metabolism in biofilm (FDA fluorescence): 24-h-old biofilms; for concentration with anti-biofilm (inhibitory) activity, extinction of FDA fluorescence: 1 h old (young) biofilms
Description: The antifungal activity against C. albicans biofilms was determined in 96-well microtiter plates (Nunclon Delta, Thermo Fisher Scientific). Cells (10^5) in 100 μL 0.05× PDB were distributed per well and plates were incubated at 37°C for up to 24 h to allow biofilm formation. After cell adherence, the microtiter plates were washed once with 0.05× PDB and the test substances were added in increasing concentrations in 100 μL 0.05× PDB per well. H2O2 served as a control for cell killing. The plates were further incubated at 30°C for 24 h. The wells were washed once with 0.05× PDB and 100 μL of FDA solution (40 μg mL^-1 in 0.05× PDB) was added to the wells. Wells containing only FDA solution (40 μg mL^-1 in 0.05× PDB) were used as blank background control. The plates were incubated for 1 h at 37°C in the dark before the fluorescence signal intensity was measured in a multi-mode microplate reader (FLUOstar Omega, BMG Labtech) with excitation and emission wavelengths of 485 and 520 nm. All experiments were prepared at least in duplicates and repeated at least twice.
Next, we analyzed the potential of the AMPs to inhibit C. albicans biofilm formation. Low susceptibility of biofilms to antifungal agents is often a limiting factor in anti-Candida treatment. To this end, C. albicans cells were distributed in 96-well microtiter plates, allowed to settle down, and to develop biofilms for 1 and 24 h. Then, planktonic cells were washed off and AMPs were added to the biofilms for another 24 h in a concentration range of 0–40 μM. The biofilms were then quantified by adding FDA to the wells. Metabolically active cells convert non-fluorescent FDA into highly fluorescent fluorescein by intracellular enzymatic activity ([Peeters et al., 2008]). The resulting fluorescence signal intensity from AMP-treated biofilms was measured and compared to untreated conditions. […] Twenty-four-hour-old biofilms, however, were resistant against PAF, PAF^var, and PAF^opt in the investigated concentration range (data not shown).

C. albicans [4] = test: Cell size reduction (FSC) by flow cytometry; settings: 1× MIC and 2× MIC, 10 and 30 min
Description: as §1
Cell shrinkage of C. albicans is a sign for cell death when exposed to AMPs ([Lee et al., 2017]). We therefore analyzed the changes in size of AMP-treated C. albicans cells by recording the FSC with flow cytometry. To this end, C. albicans cells were analyzed after 10 and 30 min of exposure to 1× MIC and 2× MIC of AMPs (Figure 5). Heat-killed and untreated C. albicans cells served as positive and negative controls, respectively (Supplementary Figure S8). […] Pγ^var and Pγ^opt caused a very prominent decrease in the FSC value compared to the untreated cell population when applied at 2× MIC. Pγ^var and Pγ^opt reduced the average cell size after a 10-min treatment by 28 ± 13 (P = 0.022) and 18 ± 10% (P = 0.041), respectively, and after 30 min the cell size was reduced by 48 ± 8 (P < 0.001) and 37 ± 12% (P = 0.007), respectively.

[5] = 1× MIC, 0.05× PDB, 30°C, mean ± SD

CC(=O)N[C@@H](CCCCN)C(=O)N[C@@H](Cc1ccc(O)cc1)C(=O)N[C@H](C(=O)NCC(=O)N[C@@H](CCCCN)C(=O)N[C@@H](CS)C(=O)N[C@H](C(=O)N[C@@H](CCCCN)C(=O)N[C@@H](CO)C(=O)N[C@@H](CCCCN)C(=O)N[C@@H](CC(N)=O)C(=O)N[C@@H](CCC(=O)O)C(=O)N[C@@H](CS)C(=O)N[C@@H](CCCCN)C(N)=O)[C@@H](C)O)[C@@H](C)O [Pγ] (Ac-KYTGKCTKSKNECK-NH2)
MIC (C. albicans [1]): 10.0 µM (≈ 16.6 µg/mL) | Candida cells killed (cfu vs untreated control) (C. albicans [2]; [5]): no killing effects | Candida cells killed (cfu vs untreated control) (C. albicans [2]; 2): 31 ± 23% | dead cells (cells killed), FACS dead-cell staining (C. albicans [3]; 1× MIC): No significant cell-killing | dead cells (cells killed), FACS dead-cell staining (C. albicans [3]; 2× MIC): No significant cell-killing | concentration inhibiting cell metabolism in biofilm (FDA fluorescence) (C. albicans biofilms): no impact | concentration with anti-biofilm (inhibitory) activity, extinction of FDA fluorescence (C. albicans biofilms): 40 µM | cell shrinkage (C. albicans [4]): did not result in cell shrinkage

CC(=O)N[C@@H](CCCCN)C(=O)N[C@@H](Cc1ccc(O)cc1)C(=O)N[C@H](C(=O)NCC(=O)N[C@@H](CCCCN)C(=O)N[C@H]1CSSC[C@@H](C(=O)N[C@@H](CCCCN)C(N)=O)NC(=O)[C@H](CCC(=O)O)NC(=O)[C@H](CC(N)=O)NC(=O)[C@H](CCCCN)NC(=O)[C@H](CO)NC(=O)[C@H](CCCCN)NC(=O)[C@H]([C@@H](C)O)NC1=O)[C@@H](C)O [Pγ_ox] (Ac-KYTGKCTKSKNECK-NH2; disulfide 6-13)
MIC (C. albicans [1]): 40 µM (≈ 66.3 µg/mL)

CC(=O)NCSC[C@H](NC(=O)[C@H](CCC(=O)O)NC(=O)[C@H](CC(N)=O)NC(=O)[C@H](CCCCN)NC(=O)[C@H](CO)NC(=O)[C@H](CCCCN)NC(=O)[C@@H](NC(=O)[C@H](CSCNC(C)=O)NC(=O)[C@H](CCCCN)NC(=O)CNC(=O)[C@@H](NC(=O)[C@H](Cc1ccc(O)cc1)NC(=O)[C@H](CCCCN)NC(C)=O)[C@@H](C)O)[C@@H](C)O)C(=O)N[C@@H](CCCCN)C(N)=O [Pγ_prot] (Ac-KYTGKC(Acm)TKSKNEC(Acm)K-NH2)
MIC (C. albicans [1]): 40 µM (≈ 72 µg/mL)

CTNKYSCKKGETKK [Pγ_scr, scrambled peptide analog of Pγ]
antifungal activity of scrambled peptide analog compared with original peptide (C. albicans [1]): same antifungal activity

Penicillium chrysogenum antifungal protein [PAF]
MIC (C. albicans [1]; 10^3 cells per well in 200 μL 0.05× PDB, 30°C, OD620nm, MIC = concentration inhibiting growth by ≥90% vs untreated control): 5 µM and 5.0 µM | Candida cells killed (cfu vs untreated control) (C. albicans [2]; [5]): no detectable killing activity | Candida cells killed (cfu vs untreated control) (C. albicans [2]; 2× MIC, 0.05× PDB, 30°C, mean ± SD): 26 ± 6% | dead cells (cells killed), FACS dead-cell staining (C. albicans [3]; 1× MIC): did not cause significant increase | dead cells (cells killed), FACS dead-cell staining (C. albicans [3]; 2× MIC): did not cause significant increase | concentration inhibiting cell metabolism in biofilm (FDA fluorescence) (C. albicans biofilms): resistant | concentration with anti-biofilm (inhibitory) activity, extinction of FDA fluorescence (C. albicans biofilms): only moderately reduced the metabolic activity | cell shrinkage (C. albicans [4]): did not result in cell shrinkage

TCKKNKKKKYGKTC [Pγ^opt_scr, scrambled peptide analog of Pγ^opt]
antifungal activity of scrambled peptide analog compared with original peptide (C. albicans [1]): same antifungal activity

TNGKKYKKKEYCCK [Pγ^var_scr, scrambled peptide analog of Pγ^var]
antifungal activity of scrambled peptide analog compared with original peptide (C. albicans [1]): same antifungal activity
